Data taken from article PMC3804129 (Journal of medicinal chemistry, 2013).

Biological target: T1, human VAChT (Homo sapiens, UniProt Q16572)
T1 sequence (Q16572 1-532): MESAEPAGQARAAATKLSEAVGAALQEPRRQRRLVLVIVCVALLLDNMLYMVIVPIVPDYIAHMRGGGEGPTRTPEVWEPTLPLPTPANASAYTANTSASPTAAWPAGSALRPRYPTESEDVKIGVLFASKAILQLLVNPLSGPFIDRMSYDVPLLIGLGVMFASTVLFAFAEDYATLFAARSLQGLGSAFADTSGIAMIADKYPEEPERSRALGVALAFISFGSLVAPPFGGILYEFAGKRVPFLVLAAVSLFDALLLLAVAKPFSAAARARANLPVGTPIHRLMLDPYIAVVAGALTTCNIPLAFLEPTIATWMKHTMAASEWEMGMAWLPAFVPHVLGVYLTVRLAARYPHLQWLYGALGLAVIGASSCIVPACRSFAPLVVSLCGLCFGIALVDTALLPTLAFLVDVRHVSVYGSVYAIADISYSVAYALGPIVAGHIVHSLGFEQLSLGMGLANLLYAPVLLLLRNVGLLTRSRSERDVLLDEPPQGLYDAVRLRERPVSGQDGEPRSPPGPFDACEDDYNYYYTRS
Test: VAChT binding assay, displacement of
Settings: for decrease in affinity for VAChT compared to 9: relative to compound 9; for selectivity for VAChT over σ receptors (σ1 and σ2): versus either sigma receptor type; for decrease in affinity for VAChT compared to 19e: relative to compound 19e; for VAChT selectivity Kiσ1/Ki VAChT: Ki for σ1 divided by Ki for VAChT

Cn1cccc1C(=O)C1CCN(C2Cc3ccccc3CC2O)CC1 (racemic) [Compound 19a, (1-(3-Hydroxy-1,2,3,4-tetrahydronaphthalen-2-yl)piperidin-4-yl)(1-methyl-1H-pyrrol-2-yl)methanone] was tested, and the “decrease in affinity for VAChT compared to 9” value was 4-5 fold and the “selectivity for VAChT over σ receptors (σ1 and σ2)” value was greater than 70 fold.
Cn1ccc(C(=O)C2CCN(C3Cc4ccccc4CC3O)CC2)c1 (racemic) [Compound 19b, (1-(3-Hydroxy-1,2,3,4-tetrahydronaphthalen-2-yl)piperidin-4-yl)(1-methyl-1H-pyrrol-3-yl)methanone] was tested, and the “decrease in affinity for VAChT compared to 9” value was 4-5 fold.
O=C(c1cccnc1)C1CCN(C2Cc3ccccc3CC2O)CC1 (racemic) [Compound 19c, (1-(3-Hydroxy-1,2,3,4-tetrahydronaphthalen-2-yl)piperidin-4-yl)(pyridin-3-yl)methanone] was tested, and the “lower affinity for VAChT compared to benzoyl counterpart 5” value (relative to compound 5) was 5 fold.
COc1cccnc1C(=O)C1CCN(C2Cc3ccccc3CC2O)CC1 (racemic) [Compound 19f, (1-(3-Hydroxy-1,2,3,4-tetrahydronaphthalen-2-yl)piperidin-4-yl)(3-methoxypyridin-2-yl)methanone] was tested, and the “decrease in affinity for VAChT compared to 19e” value was 15 fold.
For O=C(c1cncc(F)c1)C1CCN(C2Cc3ccccc3CC2O)CC1 (racemic) [Compound 19g, (5-Fluoropyridin-3-yl)(1-(3-hydroxy-1,2,3,4-tetrahydronaphthalen-2-yl)piperidin-4-yl)methanone], the “selectivity for VAChT over σ receptors (σ1 and σ2)” value was greater than 70 fold.
O=C(c1cccnc1F)C1CCN(C2Cc3ccccc3CC2O)CC1 (racemic) [Compound 19k, (2-Fluoropyridin-3-yl)(1-(3-hydroxy-1,2,3,4-tetrahydronaphthalen-2-yl)piperidin-4-yl)methanone] was tested, and the “VAChT selectivity Kiσ1/Ki VAChT” value was 100.
For CNc1ccc(C(=O)C2CCN(C3Cc4ccccc4CC3O)CC2)cc1 (racemic) [Compound 24b, (1-(3-Hydroxy-1,2,3,4-tetrahydronaphthalen-2-yl)piperidin-4-yl)(4-(methylamino)phenyl) methanone], the “VAChT selectivity Kiσ1/Ki VAChT” value was 100.
With O=C(c1ccc(OCCF)nc1)C1CCN(C2Cc3ccccc3CC2O)CC1 (racemic) [Compound 26a, (6-(2-Fluoroethoxy)pyridin-3-yl)(1-(3-hydroxy-1,2,3,4-tetrahydronaphthalen-2-yl)-piperidin-4-yl)methanone] the “decrease in affinity for VAChT compared to 19e” value was 4.5 fold.
With Cn1cccc1C(=O)C1CCN(C2Cc3c(N)cccc3CC2O)CC1 (racemic) [Compound 30a, (1-(8-Amino-3-hydroxy-1,2,3,4-tetrahydronaphthalen-2-yl)piperidin-4-yl)(1-methyl-1Hpyrrol-2-yl)methanone] the “higher VAChT binding affinity than 31a” value (relative to compound 31a) was 60 fold.
